Test results published in ChEMBL document CHEMBL5360601, “Discovery of Potent, Dual-Inhibitors of Diacylglycerol Kinases Alpha and Zeta Guided by Phenotypic Optimization” (ACS Med Chem Lett, 2023).

How the values were obtained:
[1] = system: Raji; experiment: IL2 production in PD-L1 positive human Raji cells measured after 24 hrs by Cell titer glo assay
[2] = system: Raji; experiment: IL2 production in PD-L1 negative human Raji cells measured after 24 hrs by Cell titer glo assay
[3] = Metabolic stability in mouse liver microsomes assessed as parent compound remaining; format: ADME, Microsome
[4] = Metabolic stability in human liver microsomes assessed as parent compound remaining; format: ADME, Microsome

Cn1c(=O)c(C(=O)O)c(N2CCN(C(c3ccccc3)c3ccccc3)CC2)c2ccccc21
EC50 [1]: > 100000 nM | EC50 [2]: > 100000 nM

CC(=O)c1c(N2CCN(C(c3ccccc3)c3ccccc3)CC2)c2ccccc2n(C)c1=O
EC50 [1]: 8500 nM | EC50 [2]: 13000 nM

CC(c1ccccc1)N1CCN(c2c([N+](=O)[O-])c(=O)n(C)c3ccccc23)CC1 (stereo unspecified)
Stability [3]: 4% | Stability [4]: 25% | EC50 [1]: 6390 nM | EC50 [2]: 9280 nM

Cn1c(=O)c([N+](=O)[O-])c(N2CCN(CCc3ccccc3)CC2)c2ccccc21
Stability [3]: 6% | Stability [4]: 28% | EC50 [1]: > 100000 nM | EC50 [2]: > 100000 nM

COc1ccc2c(c1)c(N1CCN(C(c3ccc(F)cc3)c3ccc(F)cc3)CC1)c([N+](=O)[O-])c(=O)n2C
Stability [3]: 8% | Stability [4]: 79% | EC50 [1]: 630 nM | EC50 [2]: 1200 nM

Cn1c(=O)c([N+](=O)[O-])c(N2CCN(C(c3ccc(F)cc3)c3ccc(F)cc3)CC2)c2ccc(F)cc21
EC50 [1]: 2600 nM | EC50 [2]: 1800 nM

Cn1c(=O)c(C#N)c(N2CCN(C(c3ccc(F)cc3)c3ccc(F)cc3)CC2)c2cc(F)ccc21
Stability [4]: 84% | EC50 [1]: 610 nM | EC50 [2]: 1100 nM

Cn1c(=O)c([N+](=O)[O-])c(N2CCN(C(c3ccc(F)cc3)c3ccc(F)cc3)CC2)c2cc(F)ccc21
Stability [3]: 77% | Stability [4]: 89% | EC50 [1]: 340 nM | EC50 [2]: 490 nM

Cn1c(=O)c([N+](=O)[O-])c(N2CCN(Cc3ccccc3)CC2)c2cc(F)ccc21
Stability [3]: 8% | Stability [4]: 43% | EC50 [1]: 1500 nM | EC50 [2]: 2500 nM

Cn1c(=O)c(C#N)c(N2CCN(C(c3ccccc3)c3ccccc3)CC2)c2ccccc21
EC50 [1]: 1370 nM | EC50 [2]: 1240 nM

CCOC(=O)c1c(N2CCN(C(c3ccccc3)c3ccccc3)CC2)c2ccccc2n(C)c1=O
Stability [3]: 52% | Stability [4]: 49% | EC50 [1]: 4100 nM | EC50 [2]: 20000 nM

CN(C)c1ccc2c(c1)c(N1CCN(C(c3ccc(F)cc3)c3ccc(F)cc3)CC1)c([N+](=O)[O-])c(=O)n2C
Stability [3]: 5% | Stability [4]: 69% | EC50 [1]: 670 nM | EC50 [2]: 760 nM

CCCN1CCN(c2c([N+](=O)[O-])c(=O)n(C)c3ccccc23)CC1
EC50 [1]: > 100000 nM | EC50 [2]: > 100000 nM

C#CCCC1(CCCN2CCN(c3c([N+](=O)[O-])c(=O)n(C)c4ccc(Br)nc34)CC2)N=N1
Stability [3]: < 1% | Stability [4]: 10% | EC50 [1]: 420 nM | EC50 [2]: 370 nM

Cn1c(=O)c([N+](=O)[O-])c(N2CCN(C(c3ccc(F)cc3)c3ccc(F)cc3)CC2)c2cnccc21
Stability [3]: 63% | Stability [4]: 100% | EC50 [1]: 560 nM | EC50 [2]: 840 nM

Cn1c(=O)c(C#N)c(N2CCN(C(c3ccc(F)cc3)c3ccc(F)cc3)CC2)c2nc(C#N)ccc21
Stability [3]: 80% | Stability [4]: 92% | EC50 [1]: 190 nM | EC50 [2]: 67 nM

Cn1c(=O)c([N+](=O)[O-])c(N2CCN(C(c3ccc(F)cc3)c3ccc(F)cc3)CC2)c2ccccc21
Stability [3]: 84% | Stability [4]: 86% | EC50 [1]: 1500 nM | EC50 [2]: 3700 nM

Cn1c(=O)cc(N2CCN(C(c3ccccc3)c3ccccc3)CC2)c2ccccc21
Stability [3]: 63% | Stability [4]: 93% | EC50 [1]: > 5000 nM | EC50 [2]: > 16000 nM

Cn1c(=O)c([N+](=O)[O-])c(N2CCN(C(c3ccc(F)cc3)c3ccc(F)cc3)CC2)c2cccnc21
EC50 [1]: 7700 nM | EC50 [2]: 13000 nM

CCn1c(=O)c([N+](=O)[O-])c(N2CCN(C(c3ccc(F)cc3)c3ccc(F)cc3)CC2)c2ccccc21
EC50 [1]: > 100000 nM | EC50 [2]: > 100000 nM

O=c1[nH]c2ccccc2c(N2CCN(C(c3ccc(F)cc3)c3ccc(F)cc3)CC2)c1[N+](=O)[O-]
EC50 [1]: > 33000 nM | EC50 [2]: > 100000 nM

Cn1c(=O)c(C(=O)C(F)(F)F)c(N2CCN(C(c3ccccc3)c3ccccc3)CC2)c2ccccc21
Stability [3]: 63% | Stability [4]: 75% | EC50 [1]: 7100 nM | EC50 [2]: 5800 nM
